Drawing on patent publication US20240317721A1, “PYRAZOLYL DERIVATIVES AS INHIBITORS OF THE KRAS MUTANT PROTEIN” (NOVARTIS AG, priority 2021, published 2024), this text covers IC50 for twelve compounds.

For the test, the target named is KRasG12C (M1-K169, biotinylated on the N-terminus) (Homo sapiens (Human), UniProt P01116, G12C). The test can be described thus: Covalent competition assay: scintillation proximity assay (SPA) quantifying covalent modification of KRASG12C. Conditions: competition with radiolabeled covalent probe (Compound B/Compound A), 2 hours incubation, 10 nM KRasG12C. It counts as binding. In short, it runs like this:
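Test compounds compete with a radiolabeled covalent probe for modification of N-terminally biotinylated KRasG12C(M1-K169):GDP, final 10 nM protein, 25 nM radio-ligand, 475 nM unlabelled ligand, 2 h with agitation in 20 mM Tris-HCl pH 7.5, 150 mM NaCl, 0.1 mM MgCl2, 0.01% Tween-20.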
Background: Scintillation proximity formats need no separation of bound from free tracer.
`C=CC(=O)N1CC2(CC(n3nc(N4CCC(C(=O)N5CCN(C)CC5)CC4(C)C)c(-c4c(Cl)c(Cl)cc5[nH]ncc45)c3C)C2)C1` (single isomer, unassigned) [Example 211a, 1-(6-(4-(5,6-dichloro-1H-indazol-4-yl)-3-(2,2-dimethyl-4-(4-methylpiperazine-1-carbonyl)piperidin-1-yl)-5-methyl-1H-pyrazol-1-yl)-2-azaspiro[3.3]heptan-2-yl)prop-2-en-1-one]: the IC50 (commonly the concentration needed to halve the response being measured) was 1.6 µM.

With `C=CC(=O)N1CC2(CC(n3nc(N4CCN(C5CCOCC5)C[C@@]4(C)C(F)F)c(-c4c(Cl)c(C)cc5[nH]ncc45)c3C)C2)C1` (single isomer, unassigned) [Example 146b], the IC50 stood at 0.031 µM.

As for `C=CC(=O)N1CC2(CC(n3nc(N4CCN(CC(C)(C)O)C[C@]4(C)CC)c(-c4c(Cl)c(C)cc5[nH]ncc45)c3C)C2)C1` (single isomer, unassigned) [Example 161b], the IC50 was 0.008 µM.

As for `C=CC(=O)N1CC2(CC(n3nc(N4CCC(CN5C[C@@H]6OCCO[C@@H]6C5)CC4(C)C)c(-c4c(Cl)c(Cl)cc5[nH]ncc45)c3C)C2)C1` (single isomer, unassigned) [Example 231a], the half-inhibitory concentration (IC50) was above 5 µM.

In the case of `C=CC(=O)N1CC2(CC(n3nc(N4CC[C@@H](CN5CCN(CCO)C(=O)C5)CC4(C)C)c(-c4c(Cl)c(Cl)cc5[nH]ncc45)c3C)C2)C1` (single isomer, unassigned) [Example 251a], the IC50 was above 5 µM.

As to `C=CC(=O)N1CC2(CC(n3nc(N4CCC(CN5C[C@@H]6C[C@H]5CO6)CC4(C)C)c(-c4c(Cl)c(Cl)cc5[nH]ncc45)c3C)C2)C1` (single isomer, unassigned) [Example 217a], the IC50 was 0.928 µM.

In the case of `C=CC(=O)N1CC2(CC(n3nc(N4CC[C@@H](CN5CC6(CCS(=O)(=O)C6)C5)CC4(C)C)c(-c4c(Cl)c(Cl)cc5[nH]ncc45)c3C)C2)C1` (single isomer, unassigned) [Example 254b], the IC50 was 0.008 µM.

Consider `C=CC(=O)N1CC2(CC(n3nc(N4CCN(C[C@@H]5COCCO5)CC45CCC5)c(-c4c(Cl)c(C)cc5[nH]ncc45)c3C)C2)C1` (single isomer, unassigned) [Example 169b], for which the IC50 came to 0.012 µM.

As for `C=CC(=O)N1CC2(CC(n3nc(N4CCN(C(C)=O)CC4)c(-c4c(Cl)ccc5[nH]ncc45)c3C)C2)C1C` (single isomer, unassigned) [Example 195b, 1-(6-(3-(4-Acetylpiperazin-1-yl)-4-(5-chloro-1H-indazol-4-yl)-5-methyl-1H-pyrazol-1-yl)-1-methyl-2-azaspiro[3.3]heptan-2-yl)prop-2-en-1-one], the IC50 is above 50 µM.

For the compound `C=CC(=O)N1CC2(CC(n3nc(N4CCC(O)CC4(C)C)c(-c4c(Cl)c(C)cc5[nH]ncc45)c3C)C2)C1` (single isomer, unassigned) [Example 30a, 1-(6-(4-(5-chloro-6-methyl-1H-indazol-4-yl)-3-(4-hydroxy-2,2-dimethylpiperidin-1-yl)-5-methyl-1H-pyrazol-1-yl)-2-azaspiro[3.3]heptan-2-yl)prop-2-en-1-one], the concentration for half-maximal inhibition (IC50) was determined as 0.514 µM.

For `C=CC(=O)N1CC2(CC(n3nc(N4CC[C@@H](CN5CCOC[C@@H]5CO)CC4(C)C)c(-c4c(Cl)c(Cl)cc5[nH]ncc45)c3C)C2)C1` (single isomer, unassigned) [Example 303b], the IC50 stood at 0.005 µM.

As for `C=CC(=O)N1CC2(CC(n3nc(N4CCN(C)CC45CCC5)c(-c4c(Cl)c(C)cc5[nH]ncc45)c3C)C2)C1` (single isomer, unassigned) [Example 55b, 1-(6-(4-(5-chloro-6-methyl-1H-indazol-4-yl)-5-methyl-3-(8-methyl-5,8-diazaspiro[3.5]nonan-5-yl)-1H-pyrazol-1-yl)-2-azaspiro[3.3]heptan-2-yl)prop-2-en-1-one], the IC50 amounted to 0.034 µM.
